From patent US11357749B2, “Methods for treating neutropenia” (Enzychem Lifesciences Corporation, priority 2014, dated 2022) come the findings set out here.

One experiment deals with ERK1/2. The experiment is described as follows: ERK1/2 phosphorylation, western blot in IgE-antigen stimulated RBL-2H3 cells. The class given is cell-based. To be noted: PLAG pre-incubated RBL-2H3 cells, IgE-antigen complex stimulation. As for the experimental part: Dephosphorylation of p38 MAPK and ERK1/2 in PLAG-treated RBL-2H3 cells is determined by western blot analysis using anti-phospho-p38 and anti-phospho-ERK1/2 respectively. To activate the p38 and ERK1/2 in RBL-2H3 cells, the cells are sensitized with 50 ng/mL of anti-DNP-IgE overnight. After washing with PBS three times, 20 ng/ml of DNP-HSA is added. Each cell lysate for western blot is prepared in the PLAG-treated RBL-2H3 cells in a dose-dependent manner and incubated for the same time (15 min). β-actin is used as internal controls. ERK1/2 and p38 phosphorylation start immediately after IgE-antigen complex stimulation and remain sufficiently activated for 5 min.
(A western blot detects proteins with antibodies after separation by electrophoresis.)

Experiment [1] has as its system STAT6. The experiment is described as follows: IL-4 induced STAT6 phosphorylation, western blot in U937, A549 and Jurkat cells. The class given is cell-based. Conditions: PLAG 0.01 to 10 μg/ml, 10 ng/ml IL-4, 15 min. As for the experimental part: Dephosphorylation of STAT6 is examined using anti-phosphorylated STAT6 in U937, A549, and Jurkat cell lysates treated with PLAG concentration from 0.01 to 10 μg/ml. Phosphorylation of STAT6 is induced by treatment with 10 ng/ml of IL-4. Dephosphorylation of STAT1 is examined in the U937 cell lysate treated with PLAG (0.01 to 10 μg/ml). Phosphorylation of STAT1 is induced by 10 ng of IFN-γ treatment. Dephosphorylation of STAT1 and STAT6 is examined at 15 min after stimulation with IFN-γ and IL-4 respectively, in the PLAG pretreated cells. […] The transcriptional activity of STAT6 is decreased by the dephosphorylation of STAT6. […] No effect of PLAG on STAT1 phosphorylation is observed.

The test system of experiment [2] is STAT6. The experiment is described as follows: STAT6 transcriptional activity reporter (luciferase) assay in HepG2 cells. It counts as cell-based, human. Conditions: HepG2, 10 ng IL-4, PLAG 0.01-10 μg/ml, 12 hours. As for the experimental part: By using STAT6 inhibitor (S6I), it is confirmed that the reduction of Complement 3 in HepG2 cells (human hepatocyte cell line) is regulated by STAT6. […] It is also confirmed that PLAG has selective efficacy on STAT6 over STAT1. FIG. 1 presents graphs showing STAT1 and STAT6 transcriptional activity in the PLAG treated HepG2 cells. NC refers to the unstimulated control cell. For the STAT1 assay, gene transfected HepG2 (human hepatocyte cell line) is treated with 10 ng of IFN-γ and serially diluted PLAG is added (0.01 μg/ml, 0.1 μg/ml, 1 μg/ml, and 10 μg/ml as shown) to see its effect on gene expression in the stimulated cell. For the STAT6 assay, gene transfected HepG2 cells are treated with 10 ng of IL-4 and again serially diluted PLAG is added (0.01 μg/ml, 0.1 μg/ml, 1 μg/ml, and 10 μg/ml as shown) to see its effect on gene expression in the stimulated cell. The assay is carried out following 12 hours incubation of treated cells.

Another experiment relates to neutrophils. The experiment is described as follows: Chemotherapy-induced neutropenia mouse model (neutrophil count, survival). The class given is in vivo, mice. As for the experimental part: (§1) The effect of PLAG for treatment of neutropenia and thrombocytopenia induced by chemotherapy (CIN) is evaluated in an animal model. Anti-cancer agents (Gemcitabine 50 mg/kg, Cyclosphosphamide 100 mg/kg, or Tamoxifen 50 mg/kg) are dosed daily for 3 weeks; PLAG is also administered 50 mg/kg daily for 3 weeks. After three weeks, neutrophils are harvested and counted with Auto Hematology Analyzer BC-5300.

A further experiment relates to Complement 3. The experiment is described as follows: Complement 3 activation by chemotherapeutic agents in mouse model. It counts as in vivo. Conditions: mice, Gemcitabine, Cyclophosphamide or Tamoxifen plus PLAG. As for the experimental part:
as §1
It is believed that the neutropenia and thrombocytopenia of these agents and other chemotherapeutic agents may be due at least in part to a specific complement-mediated toxicity. This is seen in FIG. 6.

For a further experiment, the system named is platelets. The experiment can be described thus: Lipopolysaccharide-induced platelet reduction in mice. The class given is in vivo. Conditions: 15 hours. As for the experimental part: Mice are injected with 100 mg/kg phenylhydrazine (PHZ), i.p., to induce anemia and reduction of platelets. 5 mg/kg PLAG is administered to the mice orally and blood samples are taken at 3 and 13 days after. In addition, for comparison, normal mice which are not treated with phenylhydrazine are prepared as a normal group, and mice treated with PHZ and olive oil instead of PLAG are prepared as a control group. The blood samples taken from the mice are treated with 0.5 ml EDTA (Minicollect tube, Greiner bio-one, Austria) and concentration of platelet is measured using automated blood sample analyzer BC-6800 (Mindray, Shenzhen, China) by number of platelet per […] (k: 1,000).
The experiment is repeated using Tamoxifen (Tam), an anticancer agent, injected at the amount of 100 mg/kg, or lipopolysaccharide (LPS), an inflammation inducer, at the amount of 1 mg/kg to induce platelet reduction. Platelet concentration is measured 15 hours after PLAG treatment. For comparison, olive oil and PBS are used instead of PLAG as controls, respectively for the Tamoxifen and lipopolysaccharide experiment.

Experiment [3] has as its system neutrophils and lymphocytes. The experiment can be described thus: Neutrophil and lymphocyte ratio in blood of LPS-treated Balb/C mice. The class given is in vivo. To be noted: LPS 1 mg/kg i.p. + PLAG 5 mg/kg oral, % of total leukocytes. As for the experimental part: To observe the ratio of neutrophil and lymphocyte in the blood of Balb/C mice, 1 mg/kg of lipopolysaccharide (LPS) is injected to mice, i.p. to induce inflammation. 5 mg/kg of PLAG is administered to the mice orally and blood samples are taken at 3 and 13 days after. In addition, for comparison, normal mice that are not treated with PLAG, receive PBS (phosphate buffered saline) and olive oil. The blood samples taken from the mice are treated with EDTA bottle 0.5 ml (Minocollect tube, Greiner bio-one, Austria) and the level of neutrophils (NEU) and lymphocytes (LYM) as a percentage of total leukocytes is measured using automated blood sample analyzer BC-6800 (Mindray, Shenzhen, China).

The subject of a further experiment is C4. The experiment can be described thus: Clinical study in healthy subjects: C4 in blood. The class given is in vivo, human.
Another experiment has as its system bone marrow-derived HSC. The experiment is described as follows: In vitro colony formation in bone marrow-derived HSC. It counts as cell-based.

With `CCCCC/C=C\C/C=C\CCCCCCCC(=O)OC(COC(C)=O)COC(=O)CCCCCCCCCCCCCCC` (racemic) [PLAG, 1-palmitoyl-2-linoleoyl-3-acetylglycerol], in the experiment with ERK1/2, the ERK1/2 phosphorylation entry is reported as “down-regulated”. In addition, the “IL-4 induced STAT6 phosphorylation” value in the experiment on STAT6 [1] (A549 cells), in the experiment with STAT6 [1] (Jurkat cells) and in the experiment with STAT6 [1] (U937 cells) was “inhibited with increasing PLAG concentrations” each time. Moreover, the “transcriptional activity of STAT6” value with STAT6 [2] is “gradually decreased”. For the same compound, the “reduced neutrophil count following chemotherapy” value in the experiment with neutrophils (Gemcitabine 50 mg/kg, Cyclosphosphamide 100 mg/kg or Tamoxifen 50 mg/kg daily, PLAG 50 mg/kg daily, 3 weeks) is “prevented”. For the same compound, the survival rate result in the experiment on neutrophils (PLAG with Gemcitabine vs Gemcitabine alone) was “improved survival rate”. In the experiment with neutrophils (Tamoxifen 50 mg/kg co-treated with PLAG vs Tamoxifen only), the “activities and survival rate” value is “faster improvement of activities and survival rate”. Besides, in the experiment with neutrophils (mice treated with PLAG 50 mg/kg and Gemcitabine 50 mg/kg daily, 3 weeks), the neutrophil score entry is “improved significantly”. For the same compound, the neutrophil count entry with neutrophils (mice treated with PLAG 50 mg/kg and cyclophosphamide 100 mg/kg daily, 3 weeks, vs control group) is “improved significantly”. Further, the “Complement 3 activation by chemotherapeutic agents” value with Complement 3 is reported as “largely blocked”. The “Platelet Conc.” value is on record as 450.00 k/ul in the experiment with platelets (LPS 1 mg/kg + PLAG 1 mg/kg) and 553.33 k/ul in the experiment on platelets (LPS 1 mg/kg + PLAG 2 mg/kg). Moreover, the Lymphocyte ratio in experiment [3] was determined as 34.6 ± 7.0%. The “Neutrophil Ratio” value in experiment [3] is listed as 53.2 ± 6.3%. Besides, the “C4, After” value in the experiment with C4 (healthy subjects n = 27, 500 mg PLAG per day oral, after 4-wk intervention) turned out to be 20.8 ± 5.6 mg/dL. Moreover, in the experiment on C4 (healthy subjects n = 27, before PLAG supplementation), the “C4, Before” value was determined as 21.6 ± 6.6 mg/dL. In the experiment with bone marrow-derived HSC, the colony formation result is given as “increased colony formation”.
